Drawing on patent US9340590B2 (priority 2011, dated 2016), this text covers IC50 for 6 compounds.

Positions of bridges follow the written chain, without caps; N, C: chain ends. Non-standard residues stand in square brackets, D forms with d. Residues, ends and D or L forms follow the SMILES beside them. 1Nal = N[C@@H](Cc1cccc2ccccc12)C(=O)O

The target of one experiment is hNav1.7 (Homo sapiens, UniProt Q15858). Description: cell-based. To be noted: Nav1.7 Use IC50.
hNav1.7, sequence (Q15858 whole entry, looked up): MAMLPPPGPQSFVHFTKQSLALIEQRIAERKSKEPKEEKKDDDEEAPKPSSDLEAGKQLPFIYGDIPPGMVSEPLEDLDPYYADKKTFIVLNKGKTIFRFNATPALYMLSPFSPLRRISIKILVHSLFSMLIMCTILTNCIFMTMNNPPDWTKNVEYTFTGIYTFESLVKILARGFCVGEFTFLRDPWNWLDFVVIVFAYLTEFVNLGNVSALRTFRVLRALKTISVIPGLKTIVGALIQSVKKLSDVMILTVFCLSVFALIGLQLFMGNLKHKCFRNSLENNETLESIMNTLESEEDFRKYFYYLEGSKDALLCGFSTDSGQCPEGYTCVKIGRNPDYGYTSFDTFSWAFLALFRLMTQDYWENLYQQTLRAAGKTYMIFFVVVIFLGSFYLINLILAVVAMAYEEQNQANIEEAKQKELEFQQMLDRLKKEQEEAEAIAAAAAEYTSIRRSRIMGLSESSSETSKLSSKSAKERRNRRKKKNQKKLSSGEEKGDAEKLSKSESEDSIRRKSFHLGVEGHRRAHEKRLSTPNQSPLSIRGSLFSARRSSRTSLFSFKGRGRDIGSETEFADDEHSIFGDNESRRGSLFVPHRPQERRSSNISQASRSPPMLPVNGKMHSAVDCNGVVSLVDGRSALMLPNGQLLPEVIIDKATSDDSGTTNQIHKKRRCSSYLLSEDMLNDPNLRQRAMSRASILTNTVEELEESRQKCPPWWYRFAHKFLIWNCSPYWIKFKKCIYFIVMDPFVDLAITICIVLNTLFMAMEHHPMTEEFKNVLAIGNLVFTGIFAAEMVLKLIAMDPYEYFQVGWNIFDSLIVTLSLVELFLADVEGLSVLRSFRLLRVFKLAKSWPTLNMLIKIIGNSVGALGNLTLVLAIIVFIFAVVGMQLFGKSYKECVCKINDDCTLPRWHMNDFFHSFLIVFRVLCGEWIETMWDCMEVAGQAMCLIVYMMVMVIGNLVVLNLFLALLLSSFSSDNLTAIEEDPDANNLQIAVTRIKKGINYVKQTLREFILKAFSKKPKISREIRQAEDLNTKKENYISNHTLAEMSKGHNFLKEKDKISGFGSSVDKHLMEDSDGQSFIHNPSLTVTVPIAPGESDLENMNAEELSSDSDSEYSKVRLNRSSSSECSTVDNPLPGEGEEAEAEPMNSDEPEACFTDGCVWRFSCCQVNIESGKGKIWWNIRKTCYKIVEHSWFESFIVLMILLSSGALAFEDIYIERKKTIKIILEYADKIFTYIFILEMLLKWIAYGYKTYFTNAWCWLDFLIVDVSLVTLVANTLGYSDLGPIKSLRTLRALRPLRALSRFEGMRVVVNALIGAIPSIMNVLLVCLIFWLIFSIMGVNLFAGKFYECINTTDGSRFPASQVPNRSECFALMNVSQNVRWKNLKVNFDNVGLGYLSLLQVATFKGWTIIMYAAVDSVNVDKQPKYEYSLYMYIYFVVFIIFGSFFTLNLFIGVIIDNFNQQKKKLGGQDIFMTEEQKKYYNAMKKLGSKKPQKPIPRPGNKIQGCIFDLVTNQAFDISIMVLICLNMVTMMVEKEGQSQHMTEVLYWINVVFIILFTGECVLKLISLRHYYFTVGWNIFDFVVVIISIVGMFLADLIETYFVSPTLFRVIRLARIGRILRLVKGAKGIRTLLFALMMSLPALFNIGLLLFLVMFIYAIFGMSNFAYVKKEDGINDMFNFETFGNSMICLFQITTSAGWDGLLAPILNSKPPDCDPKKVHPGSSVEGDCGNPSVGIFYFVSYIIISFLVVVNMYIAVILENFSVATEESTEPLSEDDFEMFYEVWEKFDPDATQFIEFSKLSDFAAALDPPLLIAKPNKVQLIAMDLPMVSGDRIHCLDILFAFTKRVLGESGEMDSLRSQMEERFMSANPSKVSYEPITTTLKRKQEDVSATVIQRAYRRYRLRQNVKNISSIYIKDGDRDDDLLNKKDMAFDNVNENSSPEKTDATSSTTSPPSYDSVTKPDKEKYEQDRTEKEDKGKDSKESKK
Regarding `CC[C@@H]1NC(=O)CNC(=O)[C@H](CC(C)C)NC(=O)[C@@H](NC(=O)[C@@H](N)CC(=O)O)CSSC[C@@H]2NC(=O)[C@@H]3CSSC[C@@H](C(=O)N[C@@H](CCCCN)C(=O)N[C@@H](Cc4ccc(O)cc4)C(=O)N[C@H](C(=O)N[C@@H](Cc4ccccc4)C(N)=O)C(C)C)NC(=O)[C@H](Cc4c[nH]c5ccccc45)NC(=O)[C@H](CCCCN)NC(=O)[C@H](Cc4cnc[nH]4)NC(=O)[C@H]([C@@H](C)O)NC(=O)[C@H](CCCNC(=N)N)NC(=O)[C@H](CO)NC(=O)[C@H](CSSC[C@H](NC(=O)[C@H](CCCCN)NC(=O)[C@H](CCCNC(=N)N)NC(=O)[C@H](CCSC)NC1=O)C(=O)N[C@@H]([C@@H](C)CC)C(=O)N1CCC[C@H]1C(=O)N[C@@H](CC(=O)O)C(=O)N[C@@H](CC(N)=O)C(=O)N[C@@H](CC(=O)O)C(=O)N[C@@H](CCCCN)C(=O)N3)NC(=O)[C@H](C(C)C)NC(=O)[C@H](CC(C)C)NC(=O)[C@H](CC(N)=O)NC(=O)[C@@H]1CCCN1C(=O)[C@H](CCCNC(=N)N)NC2=O` [[2-Abu5]GpTx-1(1-34)], inhibition was half-maximal at 83 nM (IC50).

The same experiment, now with this note: read-out: Nav1.7 Use IC50.
In the case of `CC[C@H](C)[C@@H]1NC(=O)[C@@H]2CSSC[C@@H]3NC(=O)[C@H](C(C)C)NC(=O)[C@H](CC(C)C)NC(=O)[C@H](CC(N)=O)NC(=O)[C@@H]4CCCN4C(=O)[C@H](CCCNC(=N)N)NC(=O)[C@H](CSSC[C@H](NC(=O)[C@@H](N)CC(=O)O)C(=O)N[C@@H](CC(C)C)C(=O)N[C@@H](CCCCN)C(=O)N[C@@H](Cc4ccccc4)C(=O)N[C@@H](CCSC)C(=O)N[C@@H](CCCNC(=N)N)C(=O)N[C@@H](CCCCN)C(=O)N2)NC(=O)[C@H](CSSC[C@@H](C(=O)N[C@@H](CCCCN)C(=O)N[C@@H](Cc2ccc(O)cc2)C(=O)N[C@H](C(=O)N[C@@H](Cc2ccccc2)C(N)=O)C(C)C)NC(=O)[C@H](Cc2c[nH]c4ccccc24)NC(=O)[C@H](CCCCN)NC(=O)[C@H](Cc2c[nH]cn2)NC(=O)[C@H]([C@@H](C)O)NC(=O)[C@H](CCCNC(=N)N)NC(=O)[C@H](CO)NC3=O)NC(=O)[C@H](CCCCN)NC(=O)[C@H](CC(=O)O)NC(=O)[C@H](CC(N)=O)NC(=O)[C@H](CC(=O)O)NC(=O)[C@@H]2CCCN2C1=O` [SEQ ID NO: 39] (H-DCLKFMRKCIPDNDKCCRPNLVCSRTHKWCKYVF-NH2; disulfide 2-17, 9-23, 16-30), the 50% inhibitory concentration (IC50) (commonly the midpoint of a concentration-inhibition curve) was 6 nM.
Take `CC[C@H](C)[C@@H]1NC(=O)[C@@H]2CSSC[C@@H]3NC(=O)[C@H](C(C)C)NC(=O)[C@H](CC(C)C)NC(=O)[C@H](CC(N)=O)NC(=O)[C@@H]4CCCN4C(=O)[C@H](CCCNC(=N)N)NC(=O)[C@H](CSSC[C@H](NC(=O)[C@@H](N)CC(=O)O)C(=O)N[C@@H](CC(C)C)C(=O)N[C@@H](CCCNC(=N)N)C(=O)N[C@@H](Cc4ccccc4)C(=O)N[C@@H](CCSC)C(=O)N[C@@H](CCCNC(=N)N)C(=O)N[C@@H](CCCCN)C(=O)N2)NC(=O)[C@H](CSSC[C@@H](C(=O)N[C@@H](CCCCN)C(=O)N[C@@H](Cc2ccc(O)cc2)C(=O)N[C@H](C(=O)N[C@@H](Cc2ccccc2)C(N)=O)C(C)C)NC(=O)[C@H](Cc2c[nH]c4ccccc24)NC(=O)[C@H](CCCCN)NC(=O)[C@H](Cc2c[nH]cn2)NC(=O)[C@H]([C@@H](C)O)NC(=O)[C@H](CCCNC(=N)N)NC(=O)[C@H](CO)NC3=O)NC(=O)[C@H](CCCCN)NC(=O)[C@H](CC(=O)O)NC(=O)[C@H](CC(N)=O)NC(=O)[C@H](CC(=O)O)NC(=O)[C@@H]2CCCN2C1=O` [SEQ ID NO: 63] (H-DCLRFMRKCIPDNDKCCRPNLVCSRTHKWCKYVF-NH2; disulfide 2-17, 9-23, 16-30): the IC50 is 3 nM.
`CC[C@H](C)[C@@H]1NC(=O)[C@@H]2CSSC[C@@H]3NC(=O)[C@H](C(C)C)NC(=O)[C@H](CC(C)C)NC(=O)[C@H](CC(N)=O)NC(=O)[C@@H]4CCCN4C(=O)[C@H](CCCNC(=N)N)NC(=O)[C@H](CSSC[C@H](NC(=O)[C@@H](N)CC(=O)O)C(=O)N[C@@H](CC(C)C)C(=O)NCC(=O)NCC(=O)N[C@@H](CCSC)C(=O)N[C@@H](CCCNC(=N)N)C(=O)N[C@@H](CCCCN)C(=O)N2)NC(=O)[C@H](CSSC[C@@H](C(=O)N[C@@H](CCCCN)C(=O)N[C@@H](Cc2ccc(O)cc2)C(=O)N[C@H](C(=O)N[C@@H](Cc2ccccc2)C(N)=O)C(C)C)NC(=O)[C@H](Cc2c[nH]c4ccccc24)NC(=O)[C@H](CCCCN)NC(=O)[C@H](Cc2c[nH]cn2)NC(=O)[C@H]([C@@H](C)O)NC(=O)[C@H](CCCNC(=N)N)NC(=O)[C@H](CO)NC3=O)NC(=O)[C@H](CCCCN)NC(=O)[C@H](CC(=O)O)NC(=O)[C@H](CC(N)=O)NC(=O)[C@H](CC(=O)O)NC(=O)[C@@H]2CCCN2C1=O` [SEQ ID NO: 265] (H-DCLGGMRKCIPDNDKCCRPNLVCSRTHKWCKYVF-NH2; disulfide 2-17, 9-23, 16-30): the IC50 is 9 nM.
On the same count and under the same terms, the value for `CC[C@H](C)[C@@H]1NC(=O)[C@@H]2CSSC[C@@H]3NC(=O)[C@H](C(C)C)NC(=O)[C@H](CC(C)C)NC(=O)[C@H](CC(N)=O)NC(=O)[C@@H]4CCCN4C(=O)[C@H](CCCNC(=N)N)NC(=O)[C@H](CSSC[C@H](NC(=O)[C@@H](N)CC(=O)O)C(=O)N[C@@H](CC(C)C)C(=O)NCC(=O)N[C@@H](CCSC)C(=O)N[C@@H](CCSC)C(=O)N[C@@H](CCCNC(=N)N)C(=O)N[C@@H](CCCCN)C(=O)N2)NC(=O)[C@H](CSSC[C@@H](C(=O)N[C@@H](CCCCN)C(=O)N[C@@H](Cc2ccc(O)cc2)C(=O)N[C@H](C(=O)N[C@@H](Cc2ccccc2)C(N)=O)C(C)C)NC(=O)[C@H](Cc2c[nH]c4ccccc24)NC(=O)[C@H](CCCCN)NC(=O)[C@H](Cc2c[nH]cn2)NC(=O)[C@H]([C@@H](C)O)NC(=O)[C@H](CCCNC(=N)N)NC(=O)[C@H](CO)NC3=O)NC(=O)[C@H](CCCCN)NC(=O)[C@H](CC(=O)O)NC(=O)[C@H](CC(N)=O)NC(=O)[C@H](CC(=O)O)NC(=O)[C@@H]2CCCN2C1=O` [SEQ ID NO: 268] (H-DCLGMMRKCIPDNDKCCRPNLVCSRTHKWCKYVF-NH2; disulfide 2-17, 9-23, 16-30) was 2 nM.
As to `CC[C@H](C)[C@@H]1NC(=O)[C@@H]2CSSC[C@@H]3NC(=O)[C@H](C(C)C)NC(=O)[C@H](CC(C)C)NC(=O)[C@H](CC(N)=O)NC(=O)[C@@H]4CCCN4C(=O)[C@H](CCCNC(=N)N)NC(=O)[C@H](CSSC[C@H](NC(=O)[C@@H](N)CC(=O)O)C(=O)N[C@@H](CC(C)C)C(=O)NCC(=O)N[C@@H](Cc4ccccc4)C(=O)N[C@@H](CCSC)C(=O)N[C@@H](CCCNC(=N)N)C(=O)N[C@@H](CCCCN)C(=O)N2)NC(=O)[C@H](CSSC[C@@H](C(=O)N[C@@H](CCCCN)C(=O)N[C@@H](Cc2cccc4ccccc24)C(=O)N[C@H](C(=O)N[C@@H](Cc2ccccc2)C(N)=O)C(C)C)NC(=O)[C@H](Cc2c[nH]c4ccccc24)NC(=O)[C@H](CCCCN)NC(=O)[C@H](Cc2c[nH]cn2)NC(=O)[C@H]([C@@H](C)O)NC(=O)[C@H](CCCNC(=N)N)NC(=O)[C@H](CO)NC3=O)NC(=O)[C@H](CCCCN)NC(=O)[C@H](CC(=O)O)NC(=O)[C@H](CC(N)=O)NC(=O)[C@H](CC(=O)O)NC(=O)[C@@H]2CCCN2C1=O` [[1-Nal32]GpTx-1(1-34)] (H-DCLGFMRKCIPDNDKCCRPNLVCSRTHKWCK[1Nal]VF-NH2; disulfide 2-17, 9-23, 16-30), the half-inhibitory concentration (IC50) was found to be 4 nM.
